EP0908457B1, “3-(1,2-benzisothiazol- and isoxazol-5-Y1)-2,4(1H,3H)-pyrimidinedione or thione and 3-(1,2-benzisothiazol- and isoxazol-5-y1)-4(3H)-pyrimidinone or thione herbicidal agents” (BASF AKTIENGESELLSCHAFT, priority 1997, dated 1999)

What was measured:
Cyperus iria = test: Preemergence weed control under flooded paddy conditions, CYPIR (Rice Flatsedge); format: in vivo; settings: flooded paddy; for herbicidal effect rating, CYPIR: meaning of each grade not given here
[1] = test system: Echinochloa oryzoides (Ard.) Fritsch.; test: Preemergence weed control under flooded paddy conditions, ECHORC (Watergrass (Calif.)); format: in vivo; settings: flooded paddy; for herbicidal effect rating, ECHORC: meaning of each grade not given here
[2] = test system: Monochoria vaginalis, Presl.; test: Preemergence weed control under flooded paddy conditions, MOOVA (Monochoria); format: in vivo; settings: flooded paddy; for herbicidal effect rating, MOOVA: meaning of each grade not given here
[3] = test system: Oryza sativa, (L.) Tebonnet; test: Rice tolerance to post-transplant applications under flooded paddy conditions (Example 187), ORYSAT (Rice, Tebonnet); settings: for herbicidal effect rating, ORYSAT (rice tolerance) / ORYSAT herbicidal rating (rice tolerance): rated three to four weeks after treatment; for herbicidal effect rating ORYSAT: rated 3-4 weeks after treatment; for herbicidal effect rating ORYSAT: meaning of each grade not given here
Sagittaria pygmaea, L. = test: Preemergence weed control under flooded paddy conditions, SAGPY (Arrowhead (Pygmaea)); format: in vivo; settings: flooded paddy; for herbicidal effect rating, SAGPY: meaning of each grade not given here
[4] = test system: Cyperus serotinus, Rottb.; test: Preemergence weed control under flooded paddy conditions, CYPSE (Flatsedge); format: in vivo; for herbicidal effect rating, CYPSE: meaning of each grade not given here
[5] = 0.0313 kg/ha, preemergence, rated three to four weeks after treatment
[6] = 0.0625 kg/ha, preemergence, rated three to four weeks after treatment
[7] = 0.1250 kg/ha, preemergence, rated three to four weeks after treatment
[8] = 0.2500 kg/ha, preemergence, rated three to four weeks after treatment
[9] = Rate 0.0320 kg/ha, preemergence, rated 3-4 weeks after treatment
[10] = Rate 0.0620 kg/ha, preemergence, rated 3-4 weeks after treatment
[11] = Rate 0.1250 kg/ha, preemergence, rated 3-4 weeks after treatment
[12] = Rate 0.2500 kg/ha, preemergence, rated 3-4 weeks after treatment
[13] = Rate 0.5000 kg/ha, preemergence, rated 3-4 weeks after treatment
[14] = 0.0313 kg/ha, preemergence weeds, rated three to four weeks after treatment
[15] = 0.0625 kg/ha, preemergence weeds, rated three to four weeks after treatment
[16] = 0.1250 kg/ha, preemergence weeds, rated three to four weeks after treatment
[17] = 0.2500 kg/ha, preemergence weeds, rated three to four weeks after treatment
[18] = 0.0320 kg/ha, preemergence, rated three to four weeks after treatment
[19] = 0.0620 kg/ha, preemergence, rated three to four weeks after treatment

## COC(=O)COc1noc2ccc(-n3c(=O)cc(C(F)(F)F)n(C)c3=O)cc12 [Example 22, Methyl {{5-[3,6-dihydro-3-methyl-2,6-dioxo-4-(trifluoromethyl)-1(2H)-pyrimidinyl]-1,2-benzisoxazol-3-yl}oxy}acetate]
Cyperus iria; [5]
  herbicidal effect rating, CYPIR: 9.0
Cyperus iria; [6]
  herbicidal effect rating, CYPIR: 9.0
Cyperus iria; [7]
  herbicidal effect rating, CYPIR: 9.0
Cyperus iria; [8]
  herbicidal effect rating, CYPIR: 9.0
[1]; [5]
  herbicidal effect rating, ECHORC: 9.0
[1]; [6]
  herbicidal effect rating, ECHORC: 9.0
[1]; [7]
  herbicidal effect rating, ECHORC: 9.0
[1]; [8]
  herbicidal effect rating, ECHORC: 9.0
[2]; [5]
  herbicidal effect rating, MOOVA: 9.0
[2]; [6]
  herbicidal effect rating, MOOVA: 9.0
[2]; [7]
  herbicidal effect rating, MOOVA: 9.0
[2]; [8]
  herbicidal effect rating, MOOVA: 9.0
[3]; 0.0313 kg/ha
  herbicidal effect rating, ORYSAT (rice tolerance): 2.0
[3]; 0.0625 kg/ha
  herbicidal effect rating, ORYSAT (rice tolerance): 2.0
[3]; 0.1250 kg/ha
  herbicidal effect rating, ORYSAT (rice tolerance): 2.5
[3]; 0.2500 kg/ha
  herbicidal effect rating, ORYSAT (rice tolerance): 2.5
Sagittaria pygmaea, L.; [5]
  herbicidal effect rating, SAGPY: 0.0
Sagittaria pygmaea, L.; [6]
  herbicidal effect rating, SAGPY: 2.0
Sagittaria pygmaea, L.; [7]
  herbicidal effect rating, SAGPY: 4.0
Sagittaria pygmaea, L.; [8]
  herbicidal effect rating, SAGPY: 9.0
[4]; [5]
  herbicidal effect rating, CYPSE: 2.0
[4]; [6]
  herbicidal effect rating, CYPSE: 7.0
[4]; [7]
  herbicidal effect rating, CYPSE: 7.0
[4]; [8]
  herbicidal effect rating, CYPSE: 9.0

## Cc1ccc(OC(C)(C)C(=O)OCC(F)(F)F)c(-c2nsc3ccc(-n4c(=O)cc(C(F)(F)F)n(C)c4=O)cc23)c1 [Example 545, Propionic acid, 2-{{2-{5-[3,6-dihydro-3-methyl-2,6-dioxo-4-(trifluoromethyl)-1(2H)-pyrimidinyl]-1,2-benzisothiazol-3-yl}-p-tolyl}oxy}-2-methyl-, 2,2,2-trifluoroethyl ester]
Cyperus iria; [9]
  herbicidal effect rating, CYPIR: 4.0
Cyperus iria; [10]
  herbicidal effect rating, CYPIR: 5.0
Cyperus iria; [11]
  herbicidal effect rating, CYPIR: 6.0
Cyperus iria; [12]
  herbicidal effect rating, CYPIR: 7.0
Cyperus iria; [13]
  herbicidal effect rating, CYPIR: 9.0
[1]; [9]
  herbicidal effect rating, ECHORC: 5.6
[1]; [10]
  herbicidal effect rating, ECHORC: 6.6
[1]; [11]
  herbicidal effect rating, ECHORC: 7.0
[1]; [12]
  herbicidal effect rating, ECHORC: 9.0
[1]; [13]
  herbicidal effect rating, ECHORC: 9.0
[2]; [9]
  herbicidal effect rating, MOOVA: 6.0
[2]; [10]
  herbicidal effect rating, MOOVA: 7.0
[2]; [11]
  herbicidal effect rating, MOOVA: 9.0
[2]; [12]
  herbicidal effect rating, MOOVA: 9.0
[2]; [13]
  herbicidal effect rating, MOOVA: 9.0
[3]; Rate 0.0320 kg/ha
  herbicidal effect rating ORYSAT: 2.0
[3]; Rate 0.0620 kg/ha
  herbicidal effect rating ORYSAT: 2.0
[3]; Rate 0.1250 kg/ha
  herbicidal effect rating ORYSAT: 4.0
[3]; Rate 0.2500 kg/ha
  herbicidal effect rating ORYSAT: 9.0
[3]; Rate 0.5000 kg/ha
  herbicidal effect rating ORYSAT: 9.0
Sagittaria pygmaea, L.; [9]
  herbicidal effect rating, SAGPY: 0.0
Sagittaria pygmaea, L.; [10]
  herbicidal effect rating, SAGPY: 0.0
Sagittaria pygmaea, L.; [11]
  herbicidal effect rating, SAGPY: 4.0
Sagittaria pygmaea, L.; [12]
  herbicidal effect rating, SAGPY: 7.0
Sagittaria pygmaea, L.; [13]
  herbicidal effect rating, SAGPY: 9.0
[4]; [9]
  herbicidal effect rating, CYPSE: 0.0
[4]; [10]
  herbicidal effect rating, CYPSE: 0.0
[4]; [11]
  herbicidal effect rating, CYPSE: 9.0
[4]; [12]
  herbicidal effect rating, CYPSE: 9.0
[4]; [13]
  herbicidal effect rating, CYPSE: 6.0

## Cc1ccc(OCC(=O)N(C(C)C)C(C)C)c(-c2nsc3ccc(-n4c(=O)cc(C(F)(F)F)n(C)c4=O)cc23)c1 [Example 61, 3-{3-{6-[(Diisopropylcarbamoyl)methoxy]-m-tolyl}-1,2-benzisothiazol-5-yl}-1-methyl-6-(trifluoromethyl)-2,4(1H,3H)-pyrimidinedione]
Cyperus iria; [5]
  herbicidal effect rating, CYPIR: 0.0
Cyperus iria; [6]
  herbicidal effect rating, CYPIR: 0.0
Cyperus iria; [7]
  herbicidal effect rating, CYPIR: 2.0
Cyperus iria; [8]
  herbicidal effect rating, CYPIR: 2.0
[1]; [5]
  herbicidal effect rating, ECHORC: 4.0
[1]; [6]
  herbicidal effect rating, ECHORC: 7.0
[1]; [7]
  herbicidal effect rating, ECHORC: 8.0
[1]; [8]
  herbicidal effect rating, ECHORC: 8.0
[2]; [5]
  herbicidal effect rating, MOOVA: 8.0
[2]; [6]
  herbicidal effect rating, MOOVA: 8.0
[2]; [7]
  herbicidal effect rating, MOOVA: 9.0
[2]; [8]
  herbicidal effect rating, MOOVA: 9.0
[3]; 0.0313 kg/ha
  herbicidal effect rating, ORYSAT (rice tolerance): 0.0
[3]; 0.0625 kg/ha
  herbicidal effect rating, ORYSAT (rice tolerance): 0.0
[3]; 0.1250 kg/ha
  herbicidal effect rating, ORYSAT (rice tolerance): 0.0
[3]; 0.2500 kg/ha
  herbicidal effect rating, ORYSAT (rice tolerance): 0.0
Sagittaria pygmaea, L.; [5]
  herbicidal effect rating, SAGPY: 0.0
Sagittaria pygmaea, L.; [6]
  herbicidal effect rating, SAGPY: 0.0
Sagittaria pygmaea, L.; [7]
  herbicidal effect rating, SAGPY: 0.0
Sagittaria pygmaea, L.; [8]
  herbicidal effect rating, SAGPY: 0.0
[4]; [5]
  herbicidal effect rating, CYPSE: 0.0
[4]; [6]
  herbicidal effect rating, CYPSE: 0.0
[4]; [7]
  herbicidal effect rating, CYPSE: 0.0
[4]; [8]
  herbicidal effect rating, CYPSE: 0.0

## CC(C)SCc1nsc2ccc(-n3c(=O)cc(C(F)(F)F)n(C)c3=O)cc12 [Example 202, 3-{3-[(Isopropylthio)methyl]-1,2-benzisothiazol-5-yl]-1-methyl-6-(trifluoromethyl)-2,4(1H,3H)-pyrimidinedione]
Cyperus iria; [14]
  herbicidal effect rating, CYPIR: 9.0
Cyperus iria; [15]
  herbicidal effect rating, CYPIR: 9.0
Cyperus iria; [16]
  herbicidal effect rating, CYPIR: 9.0
Cyperus iria; [17]
  herbicidal effect rating, CYPIR: 9.0
[1]; [14]
  herbicidal effect rating, ECHORC: 1.0
[1]; [15]
  herbicidal effect rating, ECHORC: 1.0
[1]; [16]
  herbicidal effect rating, ECHORC: 2.0
[1]; [17]
  herbicidal effect rating, ECHORC: 2.0
[2]; [14]
  herbicidal effect rating, MOOVA: 0.0
[2]; [15]
  herbicidal effect rating, MOOVA: 0.0
[2]; [16]
  herbicidal effect rating, MOOVA: 0.0
[2]; [17]
  herbicidal effect rating, MOOVA: 0.0
[3]; 0.0313 kg/ha
  herbicidal effect rating, ORYSAT (rice tolerance): 3.0
[3]; 0.0625 kg/ha
  herbicidal effect rating, ORYSAT (rice tolerance): 4.0
[3]; 0.1250 kg/ha
  herbicidal effect rating, ORYSAT (rice tolerance): 5.0
[3]; 0.2500 kg/ha
  herbicidal effect rating, ORYSAT (rice tolerance): 6.0
Sagittaria pygmaea, L.; [14]
  herbicidal effect rating, SAGPY: 0.0
Sagittaria pygmaea, L.; [15]
  herbicidal effect rating, SAGPY: 0.0
Sagittaria pygmaea, L.; [16]
  herbicidal effect rating, SAGPY: 0.0
Sagittaria pygmaea, L.; [17]
  herbicidal effect rating, SAGPY: 0.0
[4]; [14]
  herbicidal effect rating, CYPSE: 0.0
[4]; [15]
  herbicidal effect rating, CYPSE: 0.0
[4]; [16]
  herbicidal effect rating, CYPSE: 0.0
[4]; [17]
  herbicidal effect rating, CYPSE: 0.0

## CCOC(=O)C(F)(F)Oc1ccc(C)cc1-c1nsc2ccc(-n3c(=O)cc(C(F)(F)F)n(C)c3=O)cc12 [Example 559, Acetic acid, {{2-{5-[3,6-dihydro-3-methyl-2,6-dioxo-4-(trifluoromethyl)-1(2H)-pyrimidinyl]-1,2-benzisothiazol-3-yl}-p-tolyl}oxy}difluoro-, ethyl ester]
Cyperus iria; [10]
  herbicidal effect rating, CYPIR: 0.0
Cyperus iria; [11]
  herbicidal effect rating, CYPIR: 0.0
Cyperus iria; [12]
  herbicidal effect rating, CYPIR: 0.0
Cyperus iria; [13]
  herbicidal effect rating, CYPIR: 4.0
[1]; [10]
  herbicidal effect rating, ECHORC: 3.0
[1]; [11]
  herbicidal effect rating, ECHORC: 3.0
[1]; [12]
  herbicidal effect rating, ECHORC: 6.0
[1]; [13]
  herbicidal effect rating, ECHORC: 9.0
[2]; [10]
  herbicidal effect rating, MOOVA: 9.0
[2]; [11]
  herbicidal effect rating, MOOVA: 9.0
[2]; [12]
  herbicidal effect rating, MOOVA: 9.0
[2]; [13]
  herbicidal effect rating, MOOVA: 9.0
[3]; Rate 0.0620 kg/ha
  herbicidal effect rating ORYSAT: 1.0
[3]; Rate 0.1250 kg/ha
  herbicidal effect rating ORYSAT: 1.0
[3]; Rate 0.2500 kg/ha
  herbicidal effect rating ORYSAT: 2.0
[3]; Rate 0.5000 kg/ha
  herbicidal effect rating ORYSAT: 2.0
Sagittaria pygmaea, L.; [10]
  herbicidal effect rating, SAGPY: 0.0
Sagittaria pygmaea, L.; [11]
  herbicidal effect rating, SAGPY: 0.0
Sagittaria pygmaea, L.; [12]
  herbicidal effect rating, SAGPY: 0.0
Sagittaria pygmaea, L.; [13]
  herbicidal effect rating, SAGPY: 0.0
[4]; [10]
  herbicidal effect rating, CYPSE: 0.0
[4]; [11]
  herbicidal effect rating, CYPSE: 0.0
[4]; [12]
  herbicidal effect rating, CYPSE: 9.0
[4]; [13]
  herbicidal effect rating, CYPSE: 9.0

## Cn1c(C(F)(F)F)cc(=O)n(-c2ccc3snc(C(=O)NO)c3c2)c1=O [Example 471, 1,2-Benzisothiazole-3-carbohydroxamic acid, 5-[3,6-dihydro-3-methyl-2,6-dioxo-4-(trifluoromethyl)-1(2H)-pyrimidinyl]-]
Cyperus iria; [18]
  CYPIR herbicidal rating: 6.0
Cyperus iria; [19]
  CYPIR herbicidal rating: 6.0
Cyperus iria; [7]
  CYPIR herbicidal rating: 9.0
Cyperus iria; [8]
  CYPIR herbicidal rating: 9.0
[1]; [18]
  ECHORC herbicidal rating: 0.0
[1]; [19]
  ECHORC herbicidal rating: 3.0
[1]; [7]
  ECHORC herbicidal rating: 6.0
[1]; [8]
  ECHORC herbicidal rating: 9.0
[2]; [18]
  MOOVA herbicidal rating: 6.0
[2]; [19]
  MOOVA herbicidal rating: 7.0
[2]; [7]
  MOOVA herbicidal rating: 9.0
[2]; [8]
  MOOVA herbicidal rating: 9.0
[3]; 0.0320 kg/ha
  ORYSAT herbicidal rating (rice tolerance): 2.0
[3]; 0.0620 kg/ha
  ORYSAT herbicidal rating (rice tolerance): 3.0
[3]; 0.1250 kg/ha
  ORYSAT herbicidal rating (rice tolerance): 5.0
[3]; 0.2500 kg/ha
  ORYSAT herbicidal rating (rice tolerance): 5.0
Sagittaria pygmaea, L.; [18]
  SAGPY herbicidal rating: 0.0
Sagittaria pygmaea, L.; [19]
  SAGPY herbicidal rating: 3.0
Sagittaria pygmaea, L.; [7]
  SAGPY herbicidal rating: 5.0
Sagittaria pygmaea, L.; [8]
  SAGPY herbicidal rating: 7.0
[4]; [18]
  CYPSE herbicidal rating: 3.0
[4]; [8]
  CYPSE herbicidal rating: 7.0
